Laboratory results reported in BigSolDB 2.1.

COc1ccc(C(=O)O)cc1
solubility (mole fraction)
Details | 273.15 K | 278.15 K | 283.15 K | 288.15 K | 293.15 K | 298.15 K | 303.15 K | 308.15 K | 313.15 K | 318.15 K
in acetonitrile | 0.00105 | 0.00122 | 0.00156 | 0.00194 | 0.00231 | 0.00281 | 0.00351 | 0.00419 | 0.00492 | 0.00603
in chloroform | 0.00116 | 0.00135 | 0.00173 | 0.0021 | 0.00251 | 0.00299 | 0.00383 | 0.0045 | 0.00538 | 0.00637
in ethanol | 0.00549 | 0.00653 | 0.00757 | 0.00887 | 0.0101 | 0.0118 | 0.0136 | 0.0163 | 0.0188 | 0.0221
in ethyl acetate | 0.0053 | 0.00601 | 0.00728 | 0.00853 | 0.00954 | 0.0112 | 0.0128 | 0.0142 | 0.0167 | 0.0207
in isopropanol | 0.00377 | 0.00489 | 0.00597 | 0.00722 | 0.00872 | 0.0105 | 0.0127 | 0.0152 | 0.0176 | 0.0211
in methanol | 0.00454 | 0.00526 | 0.00632 | 0.00752 | 0.00857 | 0.0102 | 0.0117 | 0.0138 | 0.0161 | 0.0193
in methyl acetate | 0.00527 | 0.00611 | 0.0073 | 0.00849 | 0.00968 | 0.0112 | 0.0131 | 0.0153 | 0.0176 | 0.0213
in n-propanol | 0.00455 | 0.00527 | 0.00631 | 0.00754 | 0.00895 | 0.0106 | 0.0127 | 0.0149 | 0.0174 | 0.0201
